tested on: Echinochloa crus-galli; assay: Test Example 1: herbicidal effect test by treatment of rice paddy soil (immediately after seeding); type: in vivo; settings: 120 g/10a active ingredient, dry weight vs untreated area, 14 days after treatment
Procedure, shortened: (§1)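 Paddy soil in pots with compound fertilizer, puddled; 30 seeds per species sown at 0–1 cm, flooded ~3 cm, greenhouse. Water-diluted emulsions dropped onto water immediately after seeding at 120 g active ingredient per 10 ares, duplicate. Herbicidal rate (%) from plant dry weight versus untreated, 14 days after treatment.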

Row | SMILES | Herbicidal rate (%) Echinochloa crus-galli
1 | Cc1c(Cc2ccccc2NS(=O)(=O)C(F)(F)F)c(=O)on1CCOc1ccccc1 [Compound 1-237] | 90%
2 | Cc1c(Cc2ccccc2N(S(=O)(=O)C(F)(F)F)S(=O)(=O)C(F)(F)F)c(=O)on1Cc1ccccc1 [Compound 1-1011] | 90%
3 | Cc1c(Cc2ccccc2N(C(=O)OCC(C)C)S(=O)(=O)C(F)(F)F)c(=O)on1C(C)C [Compound 1-667] | 90%

tested on: Scirpus juncoides; assay: as above; type: in vivo; settings: 120 g/10a active ingredient, dry weight vs untreated area, 14 days after treatment
Procedure, shortened: as §1

Row | SMILES | Herbicidal rate (%) Scirpus juncoides
4 | Cc1c(Cc2ccccc2NS(=O)(=O)C(F)(F)F)c(=O)on1CCOc1ccccc1 [Compound 1-237] | 80%
5 | Cc1c(Cc2ccccc2N(S(=O)(=O)C(F)(F)F)S(=O)(=O)C(F)(F)F)c(=O)on1Cc1ccccc1 [Compound 1-1011] | 90%
6 | Cc1c(Cc2ccccc2N(C(=O)OCC(C)C)S(=O)(=O)C(F)(F)F)c(=O)on1C(C)C [Compound 1-667] | 90%

tested on: broad leaf weeds (Lindernia pyxidaria and Monochoria vaginalis); assay: as above; type: in vivo; settings: Lindernia pyxidaria, 120 g/10a active ingredient, dry weight vs untreated area, 14 days after treatment
Procedure, shortened: as §1

Row | SMILES | Herbicidal rate (%) Lindernia pyxidaria
7 | Cc1c(Cc2ccccc2NS(=O)(=O)C(F)(F)F)c(=O)on1CCOc1ccccc1 [Compound 1-237] | 90%
8 | Cc1c(Cc2ccccc2N(S(=O)(=O)C(F)(F)F)S(=O)(=O)C(F)(F)F)c(=O)on1Cc1ccccc1 [Compound 1-1011] | 90%
9 | Cc1c(Cc2ccccc2N(C(=O)OCC(C)C)S(=O)(=O)C(F)(F)F)c(=O)on1C(C)C [Compound 1-667] | 90%

same assay, conditions: Monochoria vaginalis, 120 g/10a active ingredient, dry weight vs untreated area, 14 days after treatment

Row | SMILES | Herbicidal rate (%) Monochoria vaginalis
10 | Cc1c(Cc2ccccc2NS(=O)(=O)C(F)(F)F)c(=O)on1CCOc1ccccc1 [Compound 1-237] | 80%
11 | Cc1c(Cc2ccccc2N(S(=O)(=O)C(F)(F)F)S(=O)(=O)C(F)(F)F)c(=O)on1Cc1ccccc1 [Compound 1-1011] | 90%
12 | Cc1c(Cc2ccccc2N(C(=O)OCC(C)C)S(=O)(=O)C(F)(F)F)c(=O)on1C(C)C [Compound 1-667] | 90%

tested on: Echinochloa crus-galli; assay: Test Example 2: herbicidal effect test by treatment during growing period in paddy rice cultivation (seven days after seeding); type: in vivo; settings: 120 g/10a active ingredient, assessed 14 days after treatment, dry weight vs untreated area
Procedure, shortened: (§2)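 Emulsion formulations, diluted in water, applied dropwise to flooded pots (about 3 cm water) 7 days post-seeding at 120 g a.i./10 ares. Weeds sown 30 seeds each, 0–1 cm deep in puddled paddy soil; greenhouse. Readout: % reduction in plant dry weight vs untreated, day 14, duplicates.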

Row | SMILES | Herbicidal rate (%) Echinochloa crus-galli
13 | Cc1c(Cc2ccccc2NS(=O)(=O)C(F)(F)F)c(=O)on1CCOc1ccccc1 [Compound 1-237] | 90%
14 | Cc1c(Cc2ccccc2N(S(=O)(=O)C(F)(F)F)S(=O)(=O)C(F)(F)F)c(=O)on1Cc1ccccc1 [Compound 1-1011] | 40%
15 | Cc1c(Cc2ccccc2N(C(=O)OCC(C)C)S(=O)(=O)C(F)(F)F)c(=O)on1C(C)C [Compound 1-667] | 90%

tested on: Scirpus juncoides; assay: as above; type: in vivo; settings: 120 g/10a active ingredient, assessed 14 days after treatment, dry weight vs untreated area
Procedure, shortened: as §2

Row | SMILES | Herbicidal rate (%) Scirpus juncoides
16 | Cc1c(Cc2ccccc2NS(=O)(=O)C(F)(F)F)c(=O)on1CCOc1ccccc1 [Compound 1-237] | 90%
17 | Cc1c(Cc2ccccc2N(S(=O)(=O)C(F)(F)F)S(=O)(=O)C(F)(F)F)c(=O)on1Cc1ccccc1 [Compound 1-1011] | 90%
18 | Cc1c(Cc2ccccc2N(C(=O)OCC(C)C)S(=O)(=O)C(F)(F)F)c(=O)on1C(C)C [Compound 1-667] | 90%

tested on: broad leaf weeds (Lindernia pyxidaria and Monochoria vaginalis); assay: as above; type: in vivo; settings: Lindernia pyxidaria, 120 g/10a active ingredient, assessed 14 days after treatment, dry weight vs untreated area
Procedure, shortened: as §2

Row | SMILES | Herbicidal rate (%) Lindernia pyxidaria
19 | Cc1c(Cc2ccccc2NS(=O)(=O)C(F)(F)F)c(=O)on1CCOc1ccccc1 [Compound 1-237] | 60%
20 | Cc1c(Cc2ccccc2N(S(=O)(=O)C(F)(F)F)S(=O)(=O)C(F)(F)F)c(=O)on1Cc1ccccc1 [Compound 1-1011] | 90%
21 | Cc1c(Cc2ccccc2N(C(=O)OCC(C)C)S(=O)(=O)C(F)(F)F)c(=O)on1C(C)C [Compound 1-667] | 90%

same assay, conditions: Monochoria vaginalis, 120 g/10a active ingredient, assessed 14 days after treatment, dry weight vs untreated area

Row | SMILES | Herbicidal rate (%) Monochoria vaginalis
22 | Cc1c(Cc2ccccc2NS(=O)(=O)C(F)(F)F)c(=O)on1CCOc1ccccc1 [Compound 1-237] | 90%
23 | Cc1c(Cc2ccccc2N(S(=O)(=O)C(F)(F)F)S(=O)(=O)C(F)(F)F)c(=O)on1Cc1ccccc1 [Compound 1-1011] | 90%
24 | Cc1c(Cc2ccccc2N(C(=O)OCC(C)C)S(=O)(=O)C(F)(F)F)c(=O)on1C(C)C [Compound 1-667] | 90%

tested on: Amaranthus viridis; assay: Test Example 3: herbicidal effect test by treatment of dry field farming soil (one day after seeding); type: in vivo; settings: 120 g/10a active ingredient, evaluated 14 days after treatment
Procedure: (§3) This test was conducted in a double system per one agent solution concentration area, and the herbicidal rates (%) were determined by the following equation (Math. 1) on 14 days after the treatment with the agents. Herbicidal Rate (%)={1-(Average Dry Weight (g) of Plant of Treated Area)/(Average Dry Weight (g) of Plant of Untreated Area)}×100 [Math. 1]
(§4) Herbicidal Effect Test by Treatment of Dry Field Farming Soil
(§5) Pots with a size of 36 cm^2 were filled with a dry field farming soil (alluvium). The soil of the top layer of 1 cm and seeds of weeds, namely southern crabgrass, Echinochloa crus-galli, Chenopodium album and Amaranthus viridis, 20 seeds each, were evenly mixed, and the top layer was gently pressed. Emulsions prepared using the compounds in Table 5 below according to Formulation Example 5 were diluted with water one day after seeding, and the water-diluted agent solutions were sprayed to the soil surfaces at a ratio of 100 liters per 10 ares. The converted amount of the applied active ingredient corresponded to 120 g per 10 ares. The herbicidal effects were evaluated by the same standard as that in Test Example 1 on 14 days after the treatment with the agents. […] The compound numbers in Table 5 are the same as those in Table 1 and Table 2 above.

Row | SMILES | herbicidal rate, Amaranthus viridis
25 | Cc1c(Cc2ccccc2NS(=O)(=O)C(F)(F)F)c(=O)on1CCOc1ccccc1 [Compound 1-237] | 80%
26 | Cc1c(Cc2ccccc2N(S(=O)(=O)C(F)(F)F)S(=O)(=O)C(F)(F)F)c(=O)on1Cc1ccccc1 [Compound 1-1011] | 40%
27 | Cc1c(Cc2ccccc2N(C(=O)OCC(C)C)S(=O)(=O)C(F)(F)F)c(=O)on1C(C)C [Compound 1-667] | 80%

tested on: Chenopodium album; assay: as above; type: in vivo; settings: 120 g/10a active ingredient, evaluated 14 days after treatment
Procedure: as §3, §4, §5

Row | SMILES | herbicidal rate, Chenopodium album
28 | Cc1c(Cc2ccccc2NS(=O)(=O)C(F)(F)F)c(=O)on1CCOc1ccccc1 [Compound 1-237] | 40%
29 | Cc1c(Cc2ccccc2N(S(=O)(=O)C(F)(F)F)S(=O)(=O)C(F)(F)F)c(=O)on1Cc1ccccc1 [Compound 1-1011] | 40%
30 | Cc1c(Cc2ccccc2N(C(=O)OCC(C)C)S(=O)(=O)C(F)(F)F)c(=O)on1C(C)C [Compound 1-667] | 90%

tested on: Echinochloa crus-galli; assay: as above; type: in vivo; settings: 120 g/10a active ingredient, evaluated 14 days after treatment
Procedure: as §3, §4, §5

Row | SMILES | herbicidal rate, Echinochloa crus-galli
31 | Cc1c(Cc2ccccc2NS(=O)(=O)C(F)(F)F)c(=O)on1CCOc1ccccc1 [Compound 1-237] | 50%
32 | Cc1c(Cc2ccccc2N(S(=O)(=O)C(F)(F)F)S(=O)(=O)C(F)(F)F)c(=O)on1Cc1ccccc1 [Compound 1-1011] | 90%
33 | Cc1c(Cc2ccccc2N(C(=O)OCC(C)C)S(=O)(=O)C(F)(F)F)c(=O)on1C(C)C [Compound 1-667] | 90%

tested on: southern crabgrass; assay: as above; type: in vivo; settings: 120 g/10a active ingredient, evaluated 14 days after treatment
Procedure: as §3, §4, §5

Row | SMILES | herbicidal rate, southern crabgrass
34 | Cc1c(Cc2ccccc2NS(=O)(=O)C(F)(F)F)c(=O)on1CCOc1ccccc1 [Compound 1-237] | 50%
35 | Cc1c(Cc2ccccc2N(S(=O)(=O)C(F)(F)F)S(=O)(=O)C(F)(F)F)c(=O)on1Cc1ccccc1 [Compound 1-1011] | 80%
36 | Cc1c(Cc2ccccc2N(C(=O)OCC(C)C)S(=O)(=O)C(F)(F)F)c(=O)on1C(C)C [Compound 1-667] | 80%
